Common to all, as to format: in vivo, mouse
Assay [1] concerns POMC homozygous mutant female mice. The assay can be described thus: Daily intraperitoneal α-MSH analog in POMC homozygous mutant mice: body weight, food intake, coat (Example 2). As to the method:
(§1) To test initially for the effect of peripheral melanocortins on weight change, we selected the stable agonist [Ac-Cys^4, D-Phe^7, Cys^10] α-MSH (4-13) (described in Cody et al., 1985, J. Med. Chem. 28, 583-588; incorporated herein by reference in its entirety). Briefly, [Ac-Cys^4,D-Phe^7, Cys^10] α-MSH (4-13) amide, having the cysteines connected by a disulfide bridge, was obtained from Peninsula Laboratories, CA. Lyophilized powder was dissolved in water at 1 mg/ml, which was diluted in PBS to 10 μg/mL. During the experiments, mice were maintained on a normal 12 h/12 h light/dark cycle with food and water ad libitum. Mice were fed standard laboratory rodent diet (#5001).
(§2) In order to see whether the α-MSH analog has an effect on food intake, we compared weight change and food intake in these mice for one week (see bars in FIGS. 4A and 4B) under MSH analog treatment and after MSH analog treatment was stopped (FIGS. 4C and 4D). During one week under MSH analog treatment mutant mice lost 0.5 g, while wildtype littermates gained 0.3 g; the food intake during this time was equivalent in both groups (20.7 g in wildtypes, and 22.7 g in mutants).
An effect of MSH could also be seen on coat pigmentation. […] Yellow coat pigmentation gradually reappeared after MSH treatment was terminated (data not shown).

The test system of assay [2] is wildtype female mice. The assay can be described thus: Daily intraperitoneal α-MSH analog in wildtype littermates: body weight, food intake (Example 2). The following applies: for weight loss in wildtype littermates: 1 microgram i.p. daily, 16-day treatment. As for the experimental part: as §1, §2
The subject of assay [3] is POMC null mutant mice. The assay can be described thus: Weight change and food intake by diet and MSH analog treatment, POMC null mutant mice (Example 3, Table 1). As to the method:
(§3) P values were determined by ANOVA. If the major component of weight regulation through the melanocortinergic pathway was the regulation of feeding behavior, the observed changes in body weight in POMC null mutant mice should be paralleled by a similar pattern in food uptake. This, however, was not observed (FIGS. 5B and 5D and Table 1).

The test system of assay [4] is wildtype mice. The assay can be described thus: Weight change and food intake by diet and MSH analog treatment, wildtype mice (Example 3, Table 1). The note with it: MSH analog i.p. 1 or 2 μg once daily. As for the experimental part: as §3
The test system of assay [5] is obese lep^ob/ob mice. As to the kind of experiment: Total weight change in obese lep ob/ob mice given leptin, α-MSH analog or both (Example 4, FIG. 6). The note with it: 3 μg of each compound i.p. once daily; lep ob/ob mice aged 2 months; compared to untreated controls. As for the experimental part:
To assess a more general effect of peripheral melanocortin on adipocytes, another genetic form of obesity, in lep^ob/ob mice, was treated with the α-MSH analog. In this experiment, the mice received leptin or the α-MSH analog alone, and in combination. Briefly, obese lep^ob/ob mice at age 2 months (2 per group) received daily either: (1) 3 μg of α-MSH analog (described in Examples 2 and 3 above); (2) 3 μg of recombinant mouse leptin; (3) 3 μg of α-MSH analog and 3 μg of recombinant mouse leptin in combination; or (4) saline. The compounds were delivered intraperitoneally once daily, 1-2 hours before the onset of darkness.

The test system of assay [6] is ob/ob mutants. As to the kind of experiment: Weight gain and food intake in ob/ob mutants given leptin, MSH analog or both (Example 5, FIGS. 8 and 9). As to the method:
Leptin deficient (ob/ob) mutants show both hyperphagia and “increased metabolic efficiency” as witnessed by their ability to gain weight even when pair-fed with normal congenic controls. To determine the effects of leptin and MSH on food intake and weight gain, four sets of ob/ob mutants were treated with leptin, an MSH analog, both together, or vehicle alone. The MSH analog [Ac-Cys^4, D-Phe^7, Cys^10] α-MSH (4-13) was purchased from Peninsula Laboratories (Belmont, Calif.). Mice were treated with daily injections of 7 micrograms of each, both or neither.

Assay [7] concerns ob/ob mutants. The assay can be described thus: Core temperature of ob/ob mutants exposed to 4° C. (Example 5, FIG. 10). The following applies: 7 micrograms; 5 hours without food, then 4° C. for 65 minutes; versus vehicle treated ob/ob. As for the experimental part:
In 1977, the decreased ability of ob/ob mutants to maintain body temperature at 4° C. was noted. This preceded the onset of obesity in these mice. In view of the evidence that MSH regulates adipocyte metabolism, the present inventors hypothesized that the low levels of circulating MSH in leptin deficient (ob/ob) mutants was responsible for the impaired thermal regulation. To test this, ob/ob mutants were injected with 7 micrograms of MSH analog or vehicle only as described above. The mice were left without food for 5 hours and then exposed to 4° C. for 65 minutes. Their core temperatures were measured periodically by transfer to a coldroom (4° C.) where core temperatures were measured using a digital thermometer fitted with a rectal probe (Atkins Technical Inc., Gainesville, Fla.). […] As the mice had no opportunity to eat between injection of the MSH analog and the cold challenge, food intake cannot be responsible for the altered thermal regulation.

Assay [8] deals with ob/ob mutant mice (C57BL/6J-Lep^ob). As to the kind of experiment: Circulating MSH levels by RIA in ob/ob mutants treated with leptin (Example 5, FIG. 7). The following applies: leptin 7 microgram/day i.p., two hours after the tenth daily injection. As to the method:
To test the inductive ability of leptin on circulating MSH levels, ob/ob mutants (ob/ob mutant mice (C57BL/6J-Lep^ob) and congenic controls were purchased from the Jackson Laboratory, Bar Harbor, Me.) were treated with leptin (7 microgram/day) or with vehicle alone (Murine recombinant leptin was kindly provided by Dr. A. F. Parlow through the National Hormone and Pituitary Program (NHPP); hormones were diluted to 70 micrograms per milliliter in PBS; mice were injected intraperitoneally with 0.1 mL). Two hours after the tenth daily injection, blood samples were drawn from the retro-orbital sinus and analyzed for MSH levels by RIA following the manufacturer's instructions (Peninsula Laboratories, Belmont, Calif.).

Setting [9] is: both genotypes on standard diet & MSH analog treatment.
[10] abbreviates: mutant mice, MSH analog i.p. 1 or 2 μg once daily.
The mark [11] stands for this setting: daily injections of 7 micrograms, ob/ob mutants.

“Also recorded” adds a separate entry of the source.

For “[Ac-Cys^4, D-Phe^7, Cys^10] α-MSH (4-13) [MSH analog]”, the “weight loss by 2 weeks” value in assay [1] (1 microgram (~1 nmol) i.p. daily, mutant female mice, listed as MSH-agonist) is on record as 46 % of excess weight; in assay [1] (1 microgram (~1 nmol) i.p. daily, mutant female mice, listed as stable α-MSH agonist) it was “over 40 % of excess weight”. Besides, the “weight loss within one week” value in assay [1] (1 microgram (~1 nmol) i.p. daily, mutant female mice, within one week) is recorded as 38 % of excess weight. In assay [1] (after the 16-day treatment ended), the “time until mutant mice started to gain weight after MSH injections were stopped” value is on record as “about 10 days”. Also, in assay [1] (mice treated for two weeks), the coat pigmentation entry was “lost their yellowish tinge”. In assay [1] (mutant mice, second week of treatment), the “weight lost during one week under MSH analog treatment” value is given as 0.5 g. Moreover, in assay [1] (mutant mice, third week after termination), the “weight gained in one week after MSH analog treatment had been stopped for two weeks” value was determined as 1.7 g. Besides, the “food intake during one week under MSH analog treatment” value is given as 22.7 g in assay [1] (mutants, second week of treatment) and 20.7 g in assay [2] (wildtypes, second week of treatment). The “food intake in one week after MSH analog treatment had been stopped for two weeks” value is reported as 35.7 g in assay [1] (mutants, third week after termination) and 24.2 g in assay [2] (wildtypes, third week after termination). In addition, the “weight loss in wildtype littermates” value in assay [2] (listed as MSH-agonist) was “no significant weight loss”; in assay [2] (listed as stable α-MSH agonist) it was “did not lose significant weight”. For the same molecule, the “weight gained during one week under MSH analog treatment” value in assay [2] (wildtype littermates, second week of treatment) was determined as 0.3 g. For the same molecule, the “weight gain in one week after MSH analog treatment had been stopped for two weeks” value in assay [2] (wildtype littermates, third week after termination) worked out at 0.3 g. In addition, in assay [3] (setting [9]), the “food intake, wildtype v. mutant” value was “↑”. Moreover, the “weight change, wildtype v. mutant” value in assay [3] (setting [9]) is recorded as “↓”. Besides, the “food intake, standard diet v. standard diet & MSH analog treatment” value in assay [3] (setting [10]) was “decreases food intake and ↓”; in assay [4], “decreases food intake and ↓”. Moreover, the “weight change, standard diet v. standard diet & MSH analog treatment” value in assay [3] (setting [10]) was “lose excess weight and ↓”; in assay [4], “completely capable of maintaining their body weight constant and ←→”. Moreover, in assay [5], the “total weight change over a period of 10 days” value is recorded as “slowed weight gain by almost half”. In addition, the “supplementing the weight reducing effect of leptin” value in assay [6] (MSH analog together with a leptin dose sufficient to induce normal MSH levels, ob/ob mice) is given as “inability of peripheral MSH analog to supplement the weight reducing effect”. The “effect on weight gain compared with effect on food intake” value in assay [6] (setting [11]) is listed as “greater on weight gain than on food intake”. In assay [6] (setting [11]), the weight gain result is “effectively decreased weight gain; also recorded: decreases weight gain”. Moreover, the “core temperature during exposure to 4° C.” value in assay [7] was “maintained their core temperature much better; also recorded: increases thermal homeostasis”.

B1: leptin: recombinant mouse leptin, product of the ob gene; Example 5 material provided through the NHPP (protein, UniProt P41160 22-167, looked up)
Leptin: VPIQKVQDDTKTLIKTIVTRINDISHTQSVSAKQRVTGLDFIPGLHPILSLSKMDQTLAVYQQVLTSLPSQNVLQIANDLENLRDLLHLLAFSKSCSLPQTSGLQKPESLDGVLEASLYSTEVVALSRLQGSLQDILQQLDVSPEC
For the molecule B1, the “total weight change over a period of 10 days” value in assay [5] is “little effect on preventing further weight gain”. In addition, the “circulating MSH levels” value in assay [8] is “approached those found in normal control mice; also recorded: induces almost normal levels of circulating MSH”. For the same molecule, the weight gain entry in assay [6] (setting [11]) is listed as “effectively decreased weight gain”.
